How the values were obtained:
Puccinia recondita = experiment: In vivo test on Puccinia recondita f. sp. tritici (wheat brown rust); conditions: 240 h, wheat plants (Scipion variety), grading 10 days after contamination, good (at least 70%) or total protection
Method: In vivo Test on Puccinia reconditef. Sp. tritici (Wheat Brown Rust)
The active ingredients tested are prepared by homogenisation in a mixture of acetone/tween/DMSO, then diluted with water to obtain the desired active material concentration. Wheat plants (Scipion variety) in starter cups, sown on 50/50 peat soil-pozzolana substrate and grown at 12° C., are treated at the 1-leaf stage (10 cm tall) by spraying with the active ingredient prepared as described above. Plants, used as controls, are treated with the mixture of acetone/tween/DMSO/water not containing the active material.
After 24 hours, the plants are contaminated by spraying the leaves with an aqueous suspension of Puccinia recondita spores (100,000 spores per ml). The spores are collected from a 10-day-old contaminated wheat and are suspended in water containing 2.5 ml/of tween 80 10%. The contaminated wheat plants are incubated for 24 hours at 20° C. and at 100% relative humidity, and then for 10 days at 20° C. and at 70% relative humidity. Grading is carried out 10 days after the contamination, in comparison with the control plants.

[1] = logP by HPLC on reversed-phase column (C 18), EEC Directive 79/B31 Annex V.A8, methods A and B; format: physicochemical; conditions: reversed-phase HPLC column (C 18)
Method: Calibration was carried out using unbranched alkan-2-ones (having 3 to 16 carbon atoms) with known logP values (determination of the logP values by the retention times using linear interpolation between two successive alkanones).

[2] = LogP method B: HPLC reversed-phase C 18, 40° C., 0.1% aqueous formic acid / acetonitrile, linear gradient 10% to 90% acetonitrile
[3] = LogP method A: HPLC reversed-phase C 18, 43° C., 0.1% aqueous phosphoric acid / acetonitrile, linear gradient 10% to 90% acetonitrile
[4] = Method B: 40° C., 0.1% aqueous formic acid and acetonitrile
[5] = Method A: 43° C., 0.1% aqueous phosphoric acid, acetonitrile

Row | SMILES | chromatographic logP [1, 2] | chromatographic logP [1, 3] | also measured
1 | CCCOc1nn(C)cc1C(=O)N(C1CC1)S(=O)(=O)c1ccc(Oc2ccccc2)cc1 [Compound 281] |  |  | pest or weed control at 500 ppm (Puccinia recondita): ≥ 70%
2 | CCCCOc1ccc(S(=O)(=O)N(C(=O)c2cn(C)nc2OCCC)C2CC2)cc1 [Compound 309] |  |  | pest or weed control at 500 ppm (Puccinia recondita): ≥ 70%
3 | CCCOc1nn(C)cc1C(=O)N(C1CC1)S(=O)(=O)c1ccc(Oc2cccc(C(F)(F)F)c2)cc1 [Compound 318] |  |  | pest or weed control at 500 ppm (Puccinia recondita): ≥ 70%
4 | CCCOc1nn(C)cc1C(=O)N(C1CC1)S(=O)(=O)c1ccc(Oc2ccc(C(F)(F)F)cc2)cc1 [Compound 320] |  |  | pest or weed control at 500 ppm (Puccinia recondita): ≥ 70%
5 | CCCOc1nn(C)cc1C(=O)N(C1CC1)S(=O)(=O)c1ccc(Oc2ccc(Br)cc2)cc1 [Compound 328] |  |  | pest or weed control at 500 ppm (Puccinia recondita): ≥ 70%
6 | Cn1nc(C(F)(F)F)c(C(=O)N(C2CC2)S(=O)(=O)c2ccc(F)c(F)c2F)c1F [Compound 366] |  |  | pest or weed control at 500 ppm (Puccinia recondita): ≥ 70%
7 | CCc1nn(C)c(F)c1C(=O)N(C1CC1)S(=O)(=O)c1ccc(F)cc1Br [Compound 380] |  |  | chromatographic logP ([1]; HPLC reversed-phase C 18, method B: 40° C., 0.1% aqueous formic acid and acetonitrile, linear gradient 10% to 90% acetonitrile): 2.9; pest or weed control at 500 ppm (Puccinia recondita): ≥ 70%
8 | CCc1nn(C)c(F)c1C(=O)N(C1CC1)S(=O)(=O)c1cnc(O)c(Br)c1 [Compound 448] | 3.5 |  | pest or weed control at 500 ppm (Puccinia recondita): ≥ 70%
9 | COc1nn(C)cc1C(=O)N(C1CC1)S(=O)(=O)c1ccc(Oc2ccc(Cl)c(Cl)c2)c(Cl)c1 [Compound 513] |  |  | pest or weed control at 500 ppm (Puccinia recondita): ≥ 70%
10 | CCOc1nn(C)cc1C(=O)N(C1CC1)S(=O)(=O)c1ccc(Oc2ccccc2)c(O)c1 [Compound 533] | 3.9 |  | pest or weed control at 500 ppm (Puccinia recondita): ≥ 70%
11 | CCOc1nn(C)cc1C(=O)N(C1CC1)S(=O)(=O)c1ccc(Oc2ccc(O)cc2)c(O)c1 [Compound 545] | 4.3 |  | pest or weed control at 500 ppm (Puccinia recondita): ≥ 70%
12 | CCOc1nn(C)cc1C(=O)N(C1CC1)S(=O)(=O)c1ccc(Oc2ccc(F)c(O)c2)c(O)c1 [Compound 548] | 4.4 |  | pest or weed control at 500 ppm (Puccinia recondita): ≥ 70%
13 | CCOc1nn(C)cc1C(=O)N(C1CC1)S(=O)(=O)c1ccc(Oc2cccc(Br)c2)c(O)c1 [Compound 551] | 4.5 |  | pest or weed control at 500 ppm (Puccinia recondita): ≥ 70%
14 | CCOc1nn(C)cc1C(=O)N(C1CC1)S(=O)(=O)c1ccc(OC2=CC(OC(F)(F)F)=CCC2)c(O)c1 [Compound 554] | 4.5 |  | pest or weed control at 500 ppm (Puccinia recondita): ≥ 70%
15 | CCOc1nn(C)cc1C(=O)N(C1CC1)S(=O)(=O)c1ccc(Oc2ccc(O)cc2O)c(O)c1 [Compound 555] | 4.7 |  | pest or weed control at 500 ppm (Puccinia recondita): ≥ 70%
16 | CCOc1nn(C)cc1C(=O)N(C1CC1)S(=O)(=O)c1ccc(Oc2ccc(Cl)c(Cl)c2)c(Cl)c1 [Compound 557] | 4.8 |  | pest or weed control at 500 ppm (Puccinia recondita): ≥ 70%
17 | CCOc1nn(C)cc1C(=O)N(C1CC1)S(=O)(=O)c1ccc(Oc2ccc(Br)c(O)c2)c(Cl)c1 [Compound 558] | 4.9 |  | pest or weed control at 500 ppm (Puccinia recondita): ≥ 70%
18 | CC(C)c1c(C(=O)N(C2CC2)S(=O)(=O)c2ccc(C(F)(F)F)cc2)sc(=O)n1C1CC1 [Compound 618] |  | 4.03 | 
19 | COCCn1c(C)c(C(=O)N(C2CC2)S(=O)(=O)c2ccc(O)c(C(F)(F)F)c2)sc1=O [Compound 619] |  | 2.01 | 
20 | COCCn1c(C)c(C(=O)N(C2CC2)S(=O)(=O)c2ccc(O)cc2O)sc1=O [Compound 620] |  | 2.01 | 
21 | COCCn1c(C)c(C(=O)N(C2CC2)S(=O)(=O)c2ccc(C(C)(C)C)cc2)sc1=O [Compound 621] |  | 2.01 | 

Row | SMILES | chromatographic logP [1, 2] | chromatographic logP [1, 3] | also measured
22 | Cc1c(C(=O)N(C2CC2)S(=O)(=O)c2ccc(O)c(C(F)(F)F)c2)sc(=O)n1C [Compound 622] |  | 2.01 | 
23 | Cc1c(C(=O)N(C2CC2)S(=O)(=O)c2ccc(O)c(O)c2)sc(=O)n1C [Compound 623] |  | 2.01 | 
24 | Cc1c(C(=O)N(C2CC2)S(=O)(=O)c2ccc(C(C)(C)C)cc2)sc(=O)n1C [Compound 624] |  | 2.01 | 
25 | Cc1c(C(=O)N(C2CC2)S(=O)(=O)c2ccc(O)c(C(F)(F)F)c2)sc(=O)n1Cc1ccccc1 [Compound 625] |  | 3.01 | 
26 | Cc1c(C(=O)N(C2CC2)S(=O)(=O)c2ccc(O)c(O)c2)sc(=O)n1Cc1ccccc1 [Compound 626] |  | 3.01 | 
27 | Cc1c(C(=O)N(C2CC2)S(=O)(=O)c2ccc(O)cc2O)sc(=O)n1Cc1ccccc1 [Compound 627] |  | 4.03 | 
28 | Cc1c(C(=O)N(C2CC2)S(=O)(=O)c2ccc(C(C)(C)C)cc2)sc(=O)n1Cc1ccccc1 [Compound 628] |  | 3.01 | 
29 | CCc1c(C(=O)N(C2CC2)S(=O)(=O)c2ccc(Cl)c(C(F)(F)F)c2)sc(=O)n1C1CC1 [Compound 629] |  | 3.01 | 
30 | CCc1c(C(=O)N(C2CC2)S(=O)(=O)c2ccc(O)c(O)c2)sc(=O)n1C1CC1 [Compound 630] |  | 4.08 | 
31 | CCc1c(C(=O)N(C2CC2)S(=O)(=O)c2ccc(O)cc2O)sc(=O)n1C1CC1 [Compound 631] |  | 2.01 | 
32 | CCc1c(C(=O)N(C2CC2)S(=O)(=O)c2ccc(C(C)(C)C)cc2)sc(=O)n1C1CC1 [Compound 632] |  | 3.01 | 
33 | CC(C)c1c(C(=O)N(C2CC2)S(=O)(=O)c2ccc(O)c(C(F)(F)F)c2)sc(=O)n1C1CC1 [Compound 633] |  | 3.01 | 
34 | CC(C)c1c(C(=O)N(C2CC2)S(=O)(=O)c2ccc(O)c(O)c2)sc(=O)n1C1CC1 [Compound 634] |  | 3.01 | 
35 | CC(C)c1c(C(=O)N(C2CC2)S(=O)(=O)c2ccc(O)cc2O)sc(=O)n1C1CC1 [Compound 635] |  | 2.01 | 
36 | CC(C)c1c(C(=O)N(C2CC2)S(=O)(=O)c2ccc(C(C)(C)C)cc2)sc(=O)n1C1CC1 [Compound 636] |  | 3.01 | 
37 | O=C(c1cccnc1)N(C1CC1)S(=O)(=O)c1ccc(C(F)(F)F)cc1 [Compound 637] |  | 2.74 | 
38 | O=C(c1cccnc1)N(C1CC1)S(=O)(=O)c1ccc(O)c(C(F)(F)F)c1 [Compound 638] |  | 3.1 | 
39 | O=C(c1cccnc1)N(C1CC1)S(=O)(=O)c1ccc(O)c(O)c1 [Compound 639] |  | 2.91 | 
40 | O=C(c1cccnc1)N(C1CC1)S(=O)(=O)c1cccc(O)c1 [Compound 642] |  | 2.3 | 
41 | O=C(c1cccnc1Cl)N(C1CC1)S(=O)(=O)c1cccc(O)c1 [Compound 643] |  | 2.91 | 
42 | O=C(c1cccnc1Cl)N(C1CC1)S(=O)(=O)c1ccccc1O [Compound 644] |  | 2.58 | 

Row | SMILES | chromatographic logP [1, 2] | chromatographic logP [1, 3] | also measured
43 | O=C(c1cccnc1O)N(C1CC1)S(=O)(=O)c1cccc(O)c1O [Compound 645] | 3.2 |  | 
44 | O=C(c1cccnc1O)N(C1CC1)S(=O)(=O)c1ccc(Oc2ccccc2)cc1 [Compound 646] | 3.7 |  | 
45 | O=C(c1cccnc1O)N(C1CC1)S(=O)(=O)c1ccc(O)c(O)c1O [Compound 647] | 3.7 |  | 
46 | O=C(c1cccnc1O)N(C1CC1)S(=O)(=O)c1ccc(Oc2ccc(Br)cc2)cc1 [Compound 648] | 4.3 |  | 
47 | O=C(c1cccnc1F)N(C1CC1)S(=O)(=O)c1cccc(O)c1O [Compound 649] | 2.4 |  | 
48 | Cc1cc(C)c(C(=O)N(C2CC2)S(=O)(=O)c2cccc(O)c2O)c(O)n1 [Compound 650] |  | 3.57 | 
49 | Cc1cc(C)c(C(=O)N(C2CC2)S(=O)(=O)c2ccc(O)c(O)c2O)c(Cl)n1 [Compound 651] |  | 4.16 | 
50 | O=C(C1=C(C(F)(F)F)OCCS1)N(C1CC1)S(=O)(=O)c1ccccc1O [Compound 653] |  | 3.2 | 
51 | Cc1cc(C(=O)N(C2CC2)S(=O)(=O)c2ccccc2O)nc(Cl)n1 [Compound 654] |  | 2.93 | 
52 | Cc1cnn(C)c1C(=O)N(C1CC1)S(=O)(=O)c1cccc(O)c1O [Compound 658] | 3.1 |  | 
53 | Cc1cnn(C)c1C(=O)N(C1CC1)S(=O)(=O)c1ccc(O)c(O)c1O [Compound 659] | 3.6 |  | 
54 | Cc1cnn(C)c1C(=O)N(C1CC1)S(=O)(=O)c1ccc(Oc2ccccc2)cc1 [Compound 660] | 3.6 |  | 
55 | Cc1cnn(C)c1C(=O)N(C1CC1)S(=O)(=O)c1ccc(Oc2ccc(Br)cc2)cc1 [Compound 661] | 4.2 |  | 
56 | Cn1ncc(I)c1C(=O)N(C1CC1)S(=O)(=O)c1cccc(O)c1O [Compound 662] | 2.8 |  | 
57 | Cn1ncc(I)c1C(=O)N(C1CC1)S(=O)(=O)c1ccc(O)c(O)c1O [Compound 663] | 3.4 |  | 
58 | COC(=O)C1(N(C(=O)c2c(C(F)(F)F)nn(C)c2F)S(=O)(=O)c2ccc(O)c(O)c2O)CC1 [Compound 667] |  |  | chromatographic logP [1, 4]: 4.04
59 | Cc1nn(C)c(F)c1C(=O)N(C1(c2ccc(O)cc2)CC1)S(=O)(=O)c1cccc(O)c1O [Compound 669] |  |  | chromatographic logP [1, 5]: 4.44
60 | Cc1nn(C)c(F)c1C(=O)N(C1(c2ccccc2)CC1)S(=O)(=O)c1cccc(O)c1O [Compound 670] |  |  | chromatographic logP [1, 4]: 4.1
61 | Cc1nn(C)c(F)c1C(=O)N(C1CC1c1ccccc1)S(=O)(=O)c1ccccc1O (centres unmarked) [Compound 676] |  |  | chromatographic logP [1, 5]: 3.27
